Common to all, as to test: apparent sialyltransferase kinetics
Series [1] addresses T1, His6-Pd2,6ST(16–497) (Photobacterium damselae, UniProt O66375).
T1 sequence (O66375 16-497): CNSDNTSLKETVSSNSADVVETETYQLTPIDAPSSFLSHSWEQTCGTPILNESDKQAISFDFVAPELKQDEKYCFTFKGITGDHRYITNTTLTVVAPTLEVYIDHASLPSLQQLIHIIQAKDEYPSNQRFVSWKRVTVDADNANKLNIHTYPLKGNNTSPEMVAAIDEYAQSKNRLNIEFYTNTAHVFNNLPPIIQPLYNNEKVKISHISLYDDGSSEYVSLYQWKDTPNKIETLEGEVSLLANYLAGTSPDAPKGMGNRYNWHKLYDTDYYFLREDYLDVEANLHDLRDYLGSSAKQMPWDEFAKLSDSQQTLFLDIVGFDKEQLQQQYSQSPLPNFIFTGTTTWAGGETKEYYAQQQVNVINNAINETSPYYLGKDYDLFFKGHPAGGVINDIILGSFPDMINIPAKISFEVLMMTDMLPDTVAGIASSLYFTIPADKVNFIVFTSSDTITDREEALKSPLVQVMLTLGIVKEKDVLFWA
The series is classed as biochemical. The settings on record: read-out: His6-Pd2,6ST(16-497); acceptor; donor CMP-Neu5Ac; apparent value.

Series [2] addresses Psp2,6ST(15–501)-His6 (Photobacterium sp. JT-ISH-224, UniProt A8QYL1). The series is classed as biochemical. The note with it: read-out: Psp2,6ST(15-501)-His6; acceptor; donor CMP-Neu5Ac; apparent value.
Substrate in series [3]: Cc1cc(=O)oc2cc(O[C@@H]3O[C@H](CO)[C@@H](O[C@@H]4O[C@H](CO)[C@H](O)[C@H](O)[C@H]4O)[C@H](O)[C@H]3O)ccc12
The series is classed as biochemical, Photobacterium sp. JT-ISH-224. The note with it: acceptor; donor CMP-Neu5Ac; apparent value; pH 2.6.

In article PMC3201767 (Chemical communications (Cambridge, England), 2011) one finds Km, kcat and kcat/Km data, which are given here for four molecules.

For `CC(=O)N[C@H]1[C@@H](O[C@H](C)[C@H](N)C(=O)O)O[C@H](CO)[C@H](O)[C@@H]1O` [compound 13, GalNAcαThr], the Km in series [1] worked out at 10 ± 1 mM; in series [2] it was 5.9 ± 1.6 mM.
The corresponding values for GalNAcα2AA [compound 11] are 51 ± 5 mM and 9.5 ± 2.7 mM.
In the case of `CC(=O)N[C@H]1[C@@H](OC[C@H](N)C(=O)O)O[C@H](CO)[C@H](O)[C@@H]1O` [compound 12, GalNAcαSer], the Km in series [1] turned out to be 1.6 ± 0.2 mM; in series [2], 1.4 ± 0.1 mM.

B1: Psp2,6ST(15–501)-His6 (Photobacterium sp. JT-ISH-224) (protein)
chain: CNNSEENTQSIIKNDINKTIIDEEYVNLEPINQSNISFTKHSWVQTCGTQQLLTEQNKESISLSVVAPRLDDDEKYCFDFNGVSNKGEKYITKVTLNVVAPSLEVYVDHASLPTLQQLMDIIKSEEENPTAQRYIAWGRIVPTDEQMKELNITSFALINNHTPADLVQEIVKQAQTKHRLNVKLSSNTAHSFDNLVPILKELNSFNNVTVTNIDLYDDGSAEYVNLYNWRDTLNKTDNLKIGKDYLEDVINGINEDTSNTGTSSVYNWQKLYPANYHFLRKDYLTLEPSLHELRDYIGDSLKQMQWDGFKKFNSKQQELFLSIVNFDKQKLQNEYNSSNLPNFVFTGTTVWAGNHEREYYAKQQINVINNAINESSPHYLGNSYDLFFKGHPGGGIINTLIMQNYPSMVDIPSKISFEVLMMTDMLPDAVAGIASSLYFTIPAEKIKFIVFTSTETITDRETALRSPLVQVMIKLGIVKEENVLFWA
The kcat is the maximal rate divided by the concentration of active sites. What is called kcat/Km is the turnover number divided by the Michaelis constant. Consider B1, for which, in series [3], the Km worked out at 0.36 ± 0.07 mM, the kcat stood at 1.67 ± 0.167 s⁻¹ and the kcat/Km is 4830 M⁻¹ s⁻¹.
